# Assay results published in the NIST ThermoML archive (doi:10.1021/je060271a).
# ± gives the expanded uncertainty stated by the source.
# Settings: 303.15 K, Liquid, Vibrating tube method
compound,measurement,setting,value
CCCCCC(=O)OCC(COC(=O)CCCCC)(COC(=O)CCCCC)COC(=O)CCCCC [pentaerythritol tetrahexanoate],mass density,12760 kPa,996.5 ± 1.2 kg/m3
same,mass density,12780 kPa,996.4 ± 1.2 kg/m3
same,mass density,12799 kPa,996.4 ± 1.2 kg/m3
same,mass density,12822 kPa,996.5 ± 1.2 kg/m3
same,mass density,12861 kPa,996.4 ± 1.2 kg/m3
same,mass density,12903 kPa,996.4 ± 1.2 kg/m3
same,mass density,12922 kPa,996.5 ± 1.2 kg/m3
same,mass density,12946 kPa,996.6 ± 1.2 kg/m3
same,mass density,12965 kPa,996.4 ± 1.2 kg/m3
same,mass density,12985 kPa,996.5 ± 1.2 kg/m3
same,mass density,13005 kPa,996.5 ± 1.2 kg/m3
same,mass density,13307 kPa,996.6 ± 1.2 kg/m3
same,mass density,13327 kPa,996.7 ± 1.2 kg/m3
same,mass density,13352 kPa,996.8 ± 1.2 kg/m3
same,mass density,13373 kPa,996.7 ± 1.2 kg/m3
same,mass density,13394 kPa,996.7 ± 1.2 kg/m3
same,mass density,13419 kPa,996.7 ± 1.2 kg/m3
same,mass density,13439 kPa,996.8 ± 1.2 kg/m3
same,mass density,13465 kPa,996.9 ± 1.2 kg/m3
same,mass density,13486 kPa,996.8 ± 1.2 kg/m3
same,mass density,13507 kPa,996.8 ± 1.2 kg/m3
same,mass density,13533 kPa,996.8 ± 1.2 kg/m3
same,mass density,13554 kPa,996.8 ± 1.2 kg/m3
same,mass density,13576 kPa,996.7 ± 1.2 kg/m3
same,mass density,13598 kPa,996.9 ± 1.2 kg/m3
same,mass density,13624 kPa,996.9 ± 1.2 kg/m3
same,mass density,13645 kPa,996.9 ± 1.2 kg/m3
same,mass density,13671 kPa,997 ± 1.2 kg/m3
same,mass density,13693 kPa,996.8 ± 1.2 kg/m3
same,mass density,13715 kPa,996.9 ± 1.2 kg/m3
same,mass density,13737 kPa,997 ± 1.2 kg/m3
same,mass density,13763 kPa,997 ± 1.2 kg/m3
same,mass density,13786 kPa,997 ± 1.2 kg/m3
same,mass density,13808 kPa,997 ± 1.2 kg/m3
same,mass density,13835 kPa,996.9 ± 1.2 kg/m3
same,mass density,13857 kPa,997.1 ± 1.2 kg/m3
same,mass density,13880 kPa,997 ± 1.2 kg/m3
same,mass density,13902 kPa,997 ± 1.2 kg/m3
same,mass density,13929 kPa,997 ± 1.2 kg/m3
same,mass density,13952 kPa,997.1 ± 1.2 kg/m3
same,mass density,13975 kPa,997.1 ± 1.2 kg/m3
same,mass density,14002 kPa,997.2 ± 1.2 kg/m3
same,mass density,14025 kPa,997 ± 1.2 kg/m3
same,mass density,14052 kPa,997.1 ± 1.2 kg/m3
same,mass density,14098 kPa,997.1 ± 1.2 kg/m3
same,mass density,14126 kPa,997.1 ± 1.2 kg/m3
same,mass density,14149 kPa,997.1 ± 1.2 kg/m3
same,mass density,14174 kPa,997.2 ± 1.2 kg/m3
same,mass density,14198 kPa,997.1 ± 1.2 kg/m3
same,mass density,14222 kPa,997.2 ± 1.2 kg/m3
same,mass density,14250 kPa,997.2 ± 1.2 kg/m3
same,mass density,14273 kPa,997.2 ± 1.2 kg/m3
same,mass density,14301 kPa,997.2 ± 1.2 kg/m3
same,mass density,14324 kPa,997.3 ± 1.2 kg/m3
same,mass density,14348 kPa,997.3 ± 1.2 kg/m3
same,mass density,14371 kPa,997.4 ± 1.2 kg/m3
same,mass density,14400 kPa,997.4 ± 1.2 kg/m3
same,mass density,14423 kPa,997.3 ± 1.2 kg/m3
same,mass density,14447 kPa,997.4 ± 1.2 kg/m3
same,mass density,14476 kPa,997.4 ± 1.2 kg/m3
same,mass density,14499 kPa,997.4 ± 1.2 kg/m3
same,mass density,14522 kPa,997.3 ± 1.2 kg/m3
same,mass density,14545 kPa,997.5 ± 1.2 kg/m3
same,mass density,14569 kPa,997.4 ± 1.2 kg/m3
same,mass density,14596 kPa,997.5 ± 1.2 kg/m3
same,mass density,14620 kPa,997.5 ± 1.2 kg/m3
same,mass density,14643 kPa,997.6 ± 1.2 kg/m3
same,mass density,14671 kPa,997.4 ± 1.2 kg/m3
same,mass density,14695 kPa,997.4 ± 1.2 kg/m3
same,mass density,14722 kPa,997.4 ± 1.2 kg/m3
same,mass density,14746 kPa,997.6 ± 1.2 kg/m3
same,mass density,14770 kPa,997.6 ± 1.2 kg/m3
same,mass density,14798 kPa,997.6 ± 1.2 kg/m3
same,mass density,14823 kPa,997.5 ± 1.2 kg/m3
same,mass density,14847 kPa,997.5 ± 1.2 kg/m3
same,mass density,14871 kPa,997.6 ± 1.2 kg/m3
same,mass density,14900 kPa,997.6 ± 1.2 kg/m3
same,mass density,15031 kPa,997.7 ± 1.2 kg/m3
same,mass density,15056 kPa,997.7 ± 1.2 kg/m3
same,mass density,15080 kPa,997.7 ± 1.2 kg/m3
same,mass density,15110 kPa,997.8 ± 1.2 kg/m3
same,mass density,15293 kPa,997.8 ± 1.2 kg/m3
same,mass density,15647 kPa,998.1 ± 1.2 kg/m3
same,mass density,15670 kPa,998.2 ± 1.2 kg/m3
same,mass density,15694 kPa,998.1 ± 1.2 kg/m3
same,mass density,15716 kPa,998 ± 1.2 kg/m3
same,mass density,15743 kPa,998.1 ± 1.2 kg/m3
same,mass density,15766 kPa,998.1 ± 1.2 kg/m3
same,mass density,15789 kPa,998 ± 1.2 kg/m3
same,mass density,15816 kPa,998.1 ± 1.2 kg/m3
same,mass density,15838 kPa,998.2 ± 1.2 kg/m3
same,mass density,15888 kPa,998.2 ± 1.2 kg/m3
same,mass density,15911 kPa,998.2 ± 1.2 kg/m3
same,mass density,15933 kPa,998.3 ± 1.2 kg/m3
same,mass density,15961 kPa,998.4 ± 1.2 kg/m3
same,mass density,15983 kPa,998.3 ± 1.2 kg/m3
same,mass density,16011 kPa,998.3 ± 1.2 kg/m3
same,mass density,16034 kPa,998.3 ± 1.2 kg/m3
same,mass density,16056 kPa,998.4 ± 1.2 kg/m3
same,mass density,16083 kPa,998.3 ± 1.2 kg/m3
same,mass density,16106 kPa,998.4 ± 1.2 kg/m3
same,mass density,16127 kPa,998.2 ± 1.2 kg/m3
same,mass density,16149 kPa,998.4 ± 1.2 kg/m3
same,mass density,16175 kPa,998.4 ± 1.2 kg/m3
same,mass density,16197 kPa,998.3 ± 1.2 kg/m3
same,mass density,16218 kPa,998.4 ± 1.2 kg/m3
same,mass density,16244 kPa,998.5 ± 1.2 kg/m3
same,mass density,16266 kPa,998.4 ± 1.2 kg/m3
same,mass density,16288 kPa,998.4 ± 1.2 kg/m3
same,mass density,16313 kPa,998.4 ± 1.2 kg/m3
same,mass density,16335 kPa,998.5 ± 1.2 kg/m3
same,mass density,16357 kPa,998.5 ± 1.2 kg/m3
same,mass density,16384 kPa,998.5 ± 1.2 kg/m3
same,mass density,16406 kPa,998.7 ± 1.2 kg/m3
same,mass density,16427 kPa,998.5 ± 1.2 kg/m3
same,mass density,16447 kPa,998.5 ± 1.2 kg/m3
same,mass density,16471 kPa,998.6 ± 1.2 kg/m3
same,mass density,16491 kPa,998.5 ± 1.2 kg/m3
same,mass density,16512 kPa,998.6 ± 1.2 kg/m3
same,mass density,16532 kPa,998.5 ± 1.2 kg/m3
same,mass density,16557 kPa,998.7 ± 1.2 kg/m3
same,mass density,16578 kPa,998.7 ± 1.2 kg/m3
same,mass density,16599 kPa,998.5 ± 1.2 kg/m3
same,mass density,16624 kPa,998.6 ± 1.2 kg/m3
same,mass density,16644 kPa,998.7 ± 1.2 kg/m3
same,mass density,16666 kPa,998.7 ± 1.2 kg/m3
same,mass density,16687 kPa,998.7 ± 1.2 kg/m3
same,mass density,16708 kPa,998.5 ± 1.2 kg/m3
same,mass density,16732 kPa,998.7 ± 1.2 kg/m3
same,mass density,16752 kPa,998.7 ± 1.2 kg/m3
same,mass density,16772 kPa,998.7 ± 1.2 kg/m3
same,mass density,16796 kPa,998.7 ± 1.2 kg/m3
same,mass density,16840 kPa,998.8 ± 1.2 kg/m3
same,mass density,16860 kPa,998.9 ± 1.2 kg/m3
same,mass density,16880 kPa,998.8 ± 1.2 kg/m3
same,mass density,16904 kPa,998.8 ± 1.2 kg/m3
same,mass density,16924 kPa,998.8 ± 1.2 kg/m3
same,mass density,16945 kPa,998.9 ± 1.2 kg/m3
same,mass density,16966 kPa,998.9 ± 1.2 kg/m3
same,mass density,16990 kPa,998.8 ± 1.2 kg/m3
same,mass density,17010 kPa,998.9 ± 1.2 kg/m3
same,mass density,17035 kPa,999 ± 1.2 kg/m3
same,mass density,17056 kPa,999 ± 1.2 kg/m3
same,mass density,17077 kPa,999 ± 1.2 kg/m3
same,mass density,17098 kPa,999 ± 1.2 kg/m3
